Reference: US20230365589A1, “NOVEL AMINE DERIVATIVES” (Sumitomo Pharma Co., Ltd., priority 2020, published 2023)
pIC50: −log10 of the molar value. Like-named read-outs stand apart in the source and are kept apart here.

Legend:
Assay type in all cases: biochemical
[1] = target: T1, DYRK1A (Homo sapiens, UniProt Q13627); test: Inhibition test on activity of DYRK family, mobility shift assay (MSA): DYRK1A
T1 construct: purchased Carna Biosciences, Inc. 04-130
Procedure, shortened: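 IC50 derived by regressing inhibition rate on log compound concentration, using P/(P+S) peak ratios from electrophoretic separation. DYRK1A enzyme solution 0.2 ng/μL, substrate mix with 4 μM FITC-DYRKtide and 100 μM ATP, pH 7.5 HEPES; reaction run 1 h at room temperature.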

[2] = target: T2, DYRK2 (Homo sapiens, UniProt Q92630); test: Inhibition test on activity of DYRK family, mobility shift assay (MSA): DYRK2
T2 construct: purchased Carna Biosciences, Inc. 04-132
T2 sequence (Q92630 74-601 limits assumed): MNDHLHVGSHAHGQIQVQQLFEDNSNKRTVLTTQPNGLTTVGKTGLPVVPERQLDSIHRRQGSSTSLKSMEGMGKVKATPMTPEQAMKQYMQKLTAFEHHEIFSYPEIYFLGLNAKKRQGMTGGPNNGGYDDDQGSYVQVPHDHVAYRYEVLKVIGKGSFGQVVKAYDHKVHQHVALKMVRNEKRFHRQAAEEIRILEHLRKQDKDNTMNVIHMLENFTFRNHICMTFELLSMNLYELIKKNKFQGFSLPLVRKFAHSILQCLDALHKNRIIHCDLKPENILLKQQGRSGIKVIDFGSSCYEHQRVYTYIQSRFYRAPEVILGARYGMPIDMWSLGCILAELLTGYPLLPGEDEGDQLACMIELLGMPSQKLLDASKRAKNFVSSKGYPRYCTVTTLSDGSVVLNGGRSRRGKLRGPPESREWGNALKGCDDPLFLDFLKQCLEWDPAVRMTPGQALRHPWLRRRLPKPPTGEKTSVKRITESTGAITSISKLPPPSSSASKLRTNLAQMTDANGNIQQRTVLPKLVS
Procedure, shortened: (§1)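 Reactions ran 1 h at room temperature in HEPES buffer pH 7.5 with FITC-DYRKtide as substrate. ATP in the substrate mix was 100 µM for DYRK1A, 200 µM for DYRK1B, 40 µM for DYRK2 and 20 µM for DYRK3. Phosphorylated and unphosphorylated peptide were separated on a LabChip, and IC50 was regressed on log dose.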

[3] = target: T3, DYRK3 (Homo sapiens, UniProt O43781); test: Inhibition test on activity of DYRK family, mobility shift assay (MSA): DYRK3
T3 construct: purchased Carna Biosciences, Inc. 04-133
T3 sequence (O43781 1-568 isoform O43781-2): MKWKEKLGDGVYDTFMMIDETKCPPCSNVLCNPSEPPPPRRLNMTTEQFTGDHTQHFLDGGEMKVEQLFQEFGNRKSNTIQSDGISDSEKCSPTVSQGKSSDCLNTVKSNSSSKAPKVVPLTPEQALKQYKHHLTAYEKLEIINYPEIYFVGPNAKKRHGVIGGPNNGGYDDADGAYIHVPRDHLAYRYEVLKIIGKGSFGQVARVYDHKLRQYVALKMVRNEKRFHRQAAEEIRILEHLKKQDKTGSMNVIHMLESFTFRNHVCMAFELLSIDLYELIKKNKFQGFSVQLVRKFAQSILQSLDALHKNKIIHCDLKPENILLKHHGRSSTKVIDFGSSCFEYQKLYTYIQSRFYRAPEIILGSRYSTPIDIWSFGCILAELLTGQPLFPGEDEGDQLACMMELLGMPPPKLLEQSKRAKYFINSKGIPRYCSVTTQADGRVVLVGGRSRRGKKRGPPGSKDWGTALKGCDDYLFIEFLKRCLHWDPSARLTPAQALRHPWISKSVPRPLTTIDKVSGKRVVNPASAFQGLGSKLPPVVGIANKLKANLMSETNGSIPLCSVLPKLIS
Procedure, shortened: as §1

[4] = read-out: Inhibitory activity DYRK 1A
[5] = read-out: Inhibitory activity DYRK 2
[6] = read-out: Inhibitory activity DYRK 3
[7] = MSA, FITC-labeled DYRKtide peptide, ATP 100 μM, read-out: Inhibitory activity DYRK 1A (IC50 class)
[8] = MSA, FITC-labeled DYRKtide peptide, ATP 40 μM, read-out: Inhibitory activity DYRK 2 (IC50 class)
[9] = MSA, FITC-labeled DYRKtide peptide, ATP 20 μM, read-out: Inhibitory activity DYRK 3 (IC50 class)

SMILES	pIC50 [1, 4]	pIC50 [2, 5]	pIC50 [3, 6]	pIC50 [1, 7]	pIC50 [2, 8]	pIC50 [3, 9]
O=C1N[C@H]2COCC[C@H]2N1c1nc2c3c(ccc2s1)OCC3 (racemic) [Example 121, rac-(3aR,7aR)-1-(7,8-dihydrofuro[3,2-e][1,3]benzothiazol-2-yl)hexahydropyrano[3,4-d]imidazol-2(3H)-one]	7.00 to 8.00	6.00 to 7.00	6.00 to 7.00			
O=C1N[C@@H]2CO[C@H](CO)[C@@H]2N1c1nc2c3c(ccc2s1)OCC3 [Example 154]				≤ 6.00	≤ 6.00	≤ 6.00
CN1C[C@@H]2[C@H](CC13CC3)NC(=O)N2c1nc2c3c(ccc2s1)OCC3 [Example 90]				7.00 to 8.00	6.00 to 7.00	6.00 to 7.00
O=C1N[C@H]2CNCC[C@H]2N1c1nc2c3c(ccc2s1)OCCO3 [Example 51]				7.00 to 8.00	6.00 to 7.00	6.00 to 7.00
C[C@@H]1NC(=O)N(c2nc3c4c(ccc3s2)OCC4)[C@@H]1CN(C)C [Example 25]				7.00 to 8.00	≤ 6.00	≤ 6.00
C[C@H]1[C@H]2NC(=O)N(c3nc4c5c(ccc4s3)OCC5)C2CCN1C (stereo partly drawn) [Example 91]				7.00 to 8.00	6.00 to 7.00	7.00 to 8.00
N#CCN1CCC[C@@H]2NC(=O)N(c3nc4c5c(ccc4s3)OCC5)[C@@H]2C1 (racemic) [Example 106, rac-[(3aR,8aS)-3-(7,8-dihydrofuro[3,2-e][1,3]benzothiazol-2-yl)-2-oxooctahydroimidazo[4,5-c]azepin-5(1H)-yl]acetonitrile]	7.00 to 8.00	≤ 6.00	6.00 to 7.00			
CC(C)N1CC[C@H]2NC(=O)N(c3nc4c5c(ccc4s3)OCC5)[C@H]2C1 (relative stereo) [Example 15, cis-3-(7,8-dihydrofuro[3,2-e][1,3]benzothiazol-2-yl)-5-(propan-2-yl)octahydro-2H-imidazo[4,5-c]pyridin-2-one]				7.00 to 8.00	≤ 6.00	≤ 6.00
CCN1CCC2C(C1)NC(=O)N2c1nc2c3c(ccc2s1)OCC3 (stereo not drawn) [Example 12]				7.00 to 8.00	6.00 to 7.00	6.00 to 7.00
CN1C[C@@H]2NC(=O)N(c3nc4c5c(ccc4s3)OCC5)[C@@H]2[C@@H](F)C1 [Example 74]				6.00 to 7.00	≤ 6.00	6.00 to 7.00
C[C@H]1NC(=O)N(c2nc3c4c(ccc3s2)OCC4)[C@@H]1CN(C)C [Example 22, (4R,5R)-1-(7,8-dihydrofuro[3,2-e][1,3]benzothiazol-2-yl)-5-[(dimethylamino)methyl]-4-methylimidazolidin-2-one]				6.00 to 7.00	≤ 6.00	≤ 6.00
CN1CC[C@@H]2NC(=O)N(c3nc4c5c(ccc4s3)OCC5)[C@@H]2CC1 [Example 67]				6.00 to 7.00	≤ 6.00	6.00 to 7.00
C[C@@H]1NC(=O)N(c2nc3c4c(ccc3s2)OCC4)[C@@H]1CN1CC[C@H](F)C1 [Example 115, (4S,5R)-1-(7,8-dihydrofuro[3,2-e][1,3]benzothiazol-2-yl)-5-{[(3S)-3-fluoropyrrolidin-1-yl]methyl}-4-methylimidazolidin-2-one]	7.00 to 8.00	6.00 to 7.00	≤ 6.00			
CC(C)N1CC2NC(=O)N(c3nc4c5c(ccc4s3)OCC5)C2C1 (stereo not drawn) [Example 16]				6.00 to 7.00	≤ 6.00	≤ 6.00
O=C1N[C@H]2CCN(C3CC3)C[C@H]2N1c1nc2c3c(ccc2s1)OCC3 (single isomer, unassigned) [Example 110]	> 8.00	≤ 6.00	≤ 6.00			
O=C1NC2CNCCC2N1c1nc2c3c(ccc2s1)OCC3 (stereo not drawn) [Example 2]				7.00 to 8.00	6.00 to 7.00	7.00 to 8.00
C[C@H]1C[C@H]2NC(=O)N(c3nc4c5c(ccc4s3)OCC5)[C@H]2CO1 [Example 134]				6.00 to 7.00	≤ 6.00	≤ 6.00
